Measured values from patent publication US20050220715A1, “Methods and compositions for improving drug safety” (Lotus Pharmaceutical Co., Ltd., priority 2004, published 2005).

How the values were obtained:
menstrual cycle = details: RU-486 given late in the follicular phase; cited from earlier work
pregnancy [1] = details: RU-486 at 50 mg or 10 mg; cited from earlier work
[2] = RU-486 and emetine composition pharmacokinetics study (RU-486 blood concentrations by HPLC); format: in vivo; details: human, plasma, po, one tablet (10 mg RU-486) orally, eight subjects per group
Method: Experiment 4: RU-486 and Emetine Composition Pharmacokinetics Studies
The studies were carried out with two test groups in parallel. The first group used the composite tablets according to preparation I described below (10 mg RU-486 and 8.4 mg emetine). The control group used tablets containing only 10 mg RU-486. The two types of tablets were similarly prepared, and they had the same appearance. A total of sixteen test subjects were involved, eight in each group. Each test subject was given one pill and blood samples were collected at 0, 0.33, 0.5, 0.75, 1, 1.5, 2, 3, 4, 6, 8, 12, 24, 48, 72, 96, and 120 hours for the determination of RU-486 concentrations in order to calculate Cmax, Tmax, AUC0-120, AUC0-∞, and T1/2 pharmacokinetics parameters.
Experiment 5: Analysis of Pharmacokinetics Samples
RU-486 blood concentration determinations: The analysis used calibrated HPLC. Calibration was performed for a concentration range from 5 to 5000 ng/ml. The internal standard for the analysis was metoclopramide, at 20 ng/ml, 400 ng/ml, and 4000 ng/ml as quality control. The lowest detectable concentration (LOQ) is 5 ng/ml.
Plasma sample preparation: Plasma (0.2 ml) was placed in a test tube, to which metoclopramide (25 μL; 7.5 ng/μL) was added as internal standard, followed by 50 μL of 0.2 M K2HPO4. The mixture was mixed by shaking for 30 seconds. Then, 3 ml of tert-butyl methyl ether was added as the extraction reagent. The mixture was mixed by shaking for 60 seconds before centrifuged at 3,000 rpm for 5 minutes. The upper clear solution was removed and placed into another test tube. This clear solution was dry with a stream of N2. To the dried residue, 200 μL of mobile phase was added. The tube was shaken for 60 seconds. Each injection used 30 μL of sample.

pregnancy [3] = details: cited from earlier work

Tmax [2]: 0.91 ± 0.19 h
AUC(0-t) ([2]; read-out: AUC0-120 of RU-486): 8720 ± 1470 ng·h/mL
AUC(0-inf) ([2]; read-out: AUC0-∞ of RU-486): 9420 ± 1550 ng·h/mL
half-life ([2]; read-out: T1/2 of RU-486 (converted)): 35.2 ± 2.86 h
Compound: CC#C[C@]1(O)CC[C@H]2[C@@H]3CCC4=CC(=O)CCC4=C3[C@@H](c3ccc(N(C)C)cc3)C[C@@]21C [Mifepristone, 17β-hydroxy-11β-(4-dimethylaminophenyl)-17α-(1-propynyl)-estra-4,9-dien-3-one]
prolongation of the follicular phase (menstrual cycle): 10 to 15 days
morning after pregnancy prevention effect (pregnancy [1]): same effect as 500 mg
result with abortion (pregnancy [3]; 200 mg or 150 mg of RU-486): good results with abortion
success rate of early termination of pregnancy (pregnancy [3]; 600 mg RU-486 and 400 mg misprostol, within the first 49 days of pregnancy): 97%
